Measured values: ChEMBL document CHEMBL1159031, “Cytotoxic quassinoids from Cedronia granatensis” (1992)

Tests used:
Format in all cases: functional
SNB-78 = experiment: Cytotoxicity against human SNB78 cells; settings: read-out: Log10LC50 (converted)
A549 = experiment: Cytotoxicity against human A549 cells; settings: read-out: Log10LC50 (converted)
SW-620 = experiment: Cytotoxicity against human SW620 cells; settings: read-out: Log10LC50 (converted)
DMS-273 = experiment: Cytotoxicity against human DMS273 cells; settings: read-out: Log10LC50 (converted)
NCI-H460 = experiment: Cytotoxicity against human NCI-H460 cells; settings: read-out: Log10LC50 (converted)
SNB-19 = experiment: Cytotoxicity against human SNB19 cells; settings: read-out: Log10LC50 (converted)
M19-MEL = experiment: Cytotoxicity against human M19-MEL cells; settings: read-out: Log10LC50 (converted)
OVCAR-4 = experiment: Cytotoxicity against human OVCAR4 cells; settings: read-out: Log10LC50 (converted)
COLO 205 = experiment: Cytotoxicity against human COLO205 cells; settings: read-out: Log10LC50 (converted)
U-251 = experiment: Cytotoxicity against human U251 cells; settings: read-out: Log10LC50 (converted)
EKVX = experiment: Cytotoxicity against human EKVX cells; settings: read-out: Log10LC50 (converted)
SF-268 = experiment: Cytotoxicity against human SF268 cells; settings: read-out: Log10LC50 (converted)
HCT-15 = experiment: Cytotoxicity against human HCT15 cells; settings: read-out: Log10LC50 (converted)
HCC 2998 = experiment: Cytotoxicity against human HCC2998 cells; settings: read-out: Log10LC50 (converted)
UACC-62 = experiment: Cytotoxicity against human UACC62 cells; settings: read-out: Log10LC50 (converted)
HOP-18 = experiment: Cytotoxicity against human HOP18 cells; settings: read-out: Log10LC50 (converted)
[1] = Cytotoxicity against human LXFL 529L cells; settings: read-out: Log10LC50 (converted)
Malme-3M = experiment: Cytotoxicity against human MALME-3M cells; settings: read-out: Log10LC50 (converted)
SN12C = experiment: Cytotoxicity against human SN12C cells; settings: read-out: Log10LC50 (converted)
CCRF-CEM = experiment: Cytotoxicity against human CCRF-CEM cells; settings: read-out: Log10LC50 (converted)
SNB-75 = experiment: Cytotoxicity against human SNB75 cells; settings: read-out: Log10LC50 (converted)
TK-10 = experiment: Cytotoxicity against human TK10 cells; settings: read-out: Log10LC50 (converted)
KM12 = experiment: Cytotoxicity against human KM12 cells; settings: read-out: Log10LC50 (converted)
M14 = experiment: Cytotoxicity against human M14 cells; settings: read-out: Log10LC50 (converted)
XF498 = experiment: Cytotoxicity against human XF498 cells; settings: read-out: Log10LC50 (converted)
OVCAR-8 = experiment: Cytotoxicity against human OVCAR8 cells; settings: read-out: Log10LC50 (converted)
HOP-62 = experiment: Cytotoxicity against human HOP62 cells; settings: read-out: Log10LC50 (converted)
SK-MEL-5 = experiment: Cytotoxicity against human SK-MEL-5 cells; settings: read-out: Log10LC50 (converted)
DMS-114 = experiment: Cytotoxicity against human DMS114 cells; settings: read-out: Log10LC50 (converted)
MOLT-4 = experiment: Cytotoxicity against human MOLT4 cells; settings: read-out: Log10LC50 (converted)
ACHN = experiment: Cytotoxicity against human ACHN cells; settings: read-out: Log10LC50 (converted)
A498 = experiment: Cytotoxicity against human A498 cells; settings: read-out: Log10LC50 (converted)
[2] = Cytotoxicity against human NCI-H322 cells; settings: read-out: Log10LC50 (converted)
UACC-257 = experiment: Cytotoxicity against human UACC257 cells; settings: read-out: Log10LC50 (converted)
NCI-H226 = experiment: Cytotoxicity against human NCI-H226 cells; settings: read-out: Log10LC50 (converted)
SF-539 = experiment: Cytotoxicity against human SF539 cells; settings: read-out: Log10LC50 (converted)
SF-295 = experiment: Cytotoxicity against human SF295 cells; settings: read-out: Log10LC50 (converted)
HT-29 = experiment: Cytotoxicity against human HT-29 cells; settings: read-out: Log10LC50 (converted)
OVCAR-5 = experiment: Cytotoxicity against human OVCAR5 cells; settings: read-out: Log10LC50 (converted)
UO-31 = experiment: Cytotoxicity against human UO31 cells; settings: read-out: Log10LC50 (converted)
RPMI-8226 = experiment: Cytotoxicity against human RPMI8226 cells; settings: read-out: Log10LC50 (converted)
KM-20L2 = experiment: Cytotoxicity against human KM20L2 cells; settings: read-out: Log10LC50 (converted)
CAKI-1 = experiment: Cytotoxicity against human Caki1 cells; settings: read-out: Log10LC50 (converted)
NCI-H23 = experiment: Cytotoxicity against human NCI-H23 cells; settings: read-out: Log10LC50 (converted)
HL-60(TB) = experiment: Cytotoxicity against human HL-60(TB) cells; settings: read-out: Log10LC50 (converted)
RXF 393 = experiment: Cytotoxicity against human RXF393 cells; settings: read-out: Log10LC50 (converted)
LOX IMVI = experiment: Cytotoxicity against human LOXIMVI cells; settings: read-out: Log10LC50 (converted)
SK-OV-3 = experiment: Cytotoxicity against human SKOV3 cells; settings: read-out: Log10LC50 (converted)
DLD-1 = experiment: Cytotoxicity against human DLD1 cells; settings: read-out: Log10LC50 (converted)
[3] = Cytotoxicity against human 786-O cells; settings: 786-0, read-out: Log10LC50 (converted)
K562 = experiment: Cytotoxicity against human K562 cells; settings: read-out: Log10LC50 (converted)
SK-MEL-2 = experiment: Cytotoxicity against human SK-MEL-2 cells; settings: read-out: Log10LC50 (converted)
[4] = Cytotoxicity against human RXF631 cells; settings: RXF 631, read-out: Log10LC50 (converted)
NCI-H522 = experiment: Cytotoxicity against human NCI-H522 cells; settings: read-out: Log10LC50 (converted)
SR = experiment: Cytotoxicity against human SR cells; settings: read-out: Log10LC50 (converted)
HCT-116 = experiment: Cytotoxicity against human HCT116 cells; settings: read-out: Log10LC50 (converted)
IGROV-1 = experiment: Cytotoxicity against human IGROV1 cells; settings: read-out: Log10LC50 (converted)
OVCAR-3 = experiment: Cytotoxicity against human OVCAR-3 cells; settings: read-out: Log10LC50 (converted)
SK-MEL-28 = experiment: Cytotoxicity against human SK-MEL-28 cells; settings: read-out: Log10LC50 (converted)
HOP-92 = experiment: Cytotoxicity against human HOP92 cells; settings: read-out: Log10LC50 (converted)

## COC(=O)[C@@]12OC[C@]34[C@H]([C@@H](O)[C@@H]1O)[C@@]1(C)[C@H](O)C(=O)C=C(C)[C@@H]1C[C@H]3OC(=O)[C@H](OC(C)=O)[C@@H]24 [ISOBRUCEIN B]
SNB-78
  CC50: 42.7 µM
A549
  CC50: 42.7 µM
SW-620
  CC50: 39.8 µM
DMS-273
  CC50: 2.69 µM
NCI-H460
  CC50: 14.1 µM
SNB-19
  CC50: 42.7 µM
M19-MEL
  CC50: 4.79 µM
OVCAR-4
  CC50: 11 µM
COLO 205
  CC50: 5.75 µM
U-251
  CC50: 42.7 µM
EKVX
  CC50: 42.7 µM
SF-268
  CC50: 40.7 µM
HCT-15
  CC50: 33.1 µM
HCC 2998
  CC50: 1.58 µM
UACC-62
  CC50: 5.37 µM
HOP-18
  CC50: 42.7 µM
[1]
  CC50: 42.7 µM
Malme-3M
  CC50: 3.02 µM
SN12C
  CC50: 42.7 µM
CCRF-CEM
  CC50: 42.7 µM
SNB-75
  CC50: 14.1 µM
TK-10
  CC50: 42.7 µM
KM12
  CC50: 20.9 µM
M14
  CC50: 2.29 µM
XF498
  CC50: 12 µM
OVCAR-8
  CC50: 21.9 µM
HOP-62
  CC50: 42.7 µM
SK-MEL-5
  CC50: 2.09 µM
DMS-114
  CC50: 1.91 µM
MOLT-4
  CC50: 42.7 µM
ACHN
  CC50: 42.7 µM
A498
  CC50: 5.75 µM
[2]
  CC50: 42.7 µM
UACC-257
  CC50: 20.9 µM
NCI-H226
  CC50: 14.1 µM
SF-539
  CC50: 1.29 µM
SF-295
  CC50: 32.4 µM
HT-29
  CC50: 42.7 µM
OVCAR-5
  CC50: 42.7 µM
UO-31
  CC50: 42.7 µM
RPMI-8226
  CC50: 42.7 µM
KM-20L2
  CC50: 42.7 µM
CAKI-1
  CC50: 42.7 µM
NCI-H23
  CC50: 3.47 µM
HL-60(TB)
  CC50: 0.347 µM
RXF 393
  CC50: 10 µM
LOX IMVI
  CC50: 8.51 µM
SK-OV-3
  CC50: 42.7 µM
DLD-1
  CC50: 42.7 µM
[3]
  CC50: 33.1 µM
K562
  CC50: 11 µM
SK-MEL-2
  CC50: 7.08 µM
[4]
  CC50: 42.7 µM
NCI-H522
  CC50: 6.17 µM
SR
  CC50: 42.7 µM
HCT-116
  CC50: 18.2 µM
IGROV-1
  CC50: 42.7 µM
OVCAR-3
  CC50: 42.7 µM
SK-MEL-28
  CC50: 3.39 µM
HOP-92
  CC50: 42.7 µM
